The values that follow are results of earlier work, collected in patent publication US7790738B2, “Methods of treating and preventing AIDS using of COX-2 inhibitors” (Lauras AS, priority 2000, dated 2010).

One data set concerns the target COX-1 (Cavia porcellus, UniProt H0V9X9). To be noted: read-out: COX-1 IC50; guinea pig macrophage model; Engelhart et al. 1995; cited from earlier work.
The next data set has as its target T1, COX-2 (Cavia porcellus, UniProt P70682).
T1 construct: NSAID's in guinea pig macrophage model; endogenous in cells; host or cells: guinea pig macrophages
T1 sequence (P70682 18-604): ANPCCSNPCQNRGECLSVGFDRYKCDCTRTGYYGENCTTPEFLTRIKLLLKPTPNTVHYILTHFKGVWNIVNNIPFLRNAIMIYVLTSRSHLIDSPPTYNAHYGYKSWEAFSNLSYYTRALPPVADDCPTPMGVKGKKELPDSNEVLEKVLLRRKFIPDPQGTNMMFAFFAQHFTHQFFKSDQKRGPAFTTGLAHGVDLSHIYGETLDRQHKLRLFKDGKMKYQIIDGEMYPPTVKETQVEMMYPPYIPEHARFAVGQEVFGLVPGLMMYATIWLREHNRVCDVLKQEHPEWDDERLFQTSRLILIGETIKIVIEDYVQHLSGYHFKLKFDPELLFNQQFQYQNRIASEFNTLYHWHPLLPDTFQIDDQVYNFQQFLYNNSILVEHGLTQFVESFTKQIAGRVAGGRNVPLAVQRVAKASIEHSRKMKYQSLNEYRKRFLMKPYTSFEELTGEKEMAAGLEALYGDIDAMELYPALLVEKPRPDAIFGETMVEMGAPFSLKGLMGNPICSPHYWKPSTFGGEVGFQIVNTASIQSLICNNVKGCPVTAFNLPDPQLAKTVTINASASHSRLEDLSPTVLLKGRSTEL
To be noted: guinea pig macrophage model; Engelhart et al. 1995; cited from earlier work.

COX-1, sequence (H0V9X9 entry or part of it): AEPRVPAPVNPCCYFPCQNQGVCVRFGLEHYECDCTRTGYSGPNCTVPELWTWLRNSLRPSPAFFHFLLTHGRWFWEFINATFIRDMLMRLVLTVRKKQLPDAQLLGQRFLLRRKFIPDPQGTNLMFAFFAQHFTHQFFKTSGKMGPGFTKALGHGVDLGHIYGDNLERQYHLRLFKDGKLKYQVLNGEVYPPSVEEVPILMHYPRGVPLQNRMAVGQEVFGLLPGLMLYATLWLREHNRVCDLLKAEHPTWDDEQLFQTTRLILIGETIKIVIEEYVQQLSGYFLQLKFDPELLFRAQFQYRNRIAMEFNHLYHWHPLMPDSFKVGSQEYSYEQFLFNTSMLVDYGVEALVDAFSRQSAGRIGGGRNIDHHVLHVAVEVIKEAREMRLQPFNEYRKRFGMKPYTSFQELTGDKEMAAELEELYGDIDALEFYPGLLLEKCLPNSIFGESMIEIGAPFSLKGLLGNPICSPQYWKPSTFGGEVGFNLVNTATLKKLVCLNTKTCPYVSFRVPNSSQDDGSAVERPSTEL

Consider `CN1C(C(=O)Nc2ccccn2)=C(O)c2sccc2S1(=O)=O` [Tenoxicam], for which the results for the half-maximal inhibitory concentration (IC50) at COX-1 and on COX-2 were 201 nM and 322 nM, respectively.
